Source: patent publication US11319289B2, “5-hydroxy pyridine-based compound for use as P2X1 and P2X3 receptor antagonist and pharmaceutical composition comprising same” (GWANGJU INSTITUTE OF SCIENCE AND TECHNOLOGY, priority 2017, dated 2022)

Key:
[1] = system: SNL rats (mechanical allodynia); test: Antiallodynic effect (von Frey) in spinal nerve ligation (SNL) rats; assay type: in vivo, rat; conditions: for ED50: Rattus norvegicus, antiallodynic effect, intravenous administration
Description: (§1) 3-1. Evaluation of In Vivo Efficacy
(§2) The antiallodynic effects (mechanical allodynia) were evaluated using rats according to a previously reported protocol. In order to evaluate the withdrawal threshold, rats (naive, SNL and CIPN) were placed on a plastic mesh floor of individual plastic cages. The rats were allowed to acclimate to the environment for 30 minutes and examined after intrathecal or intravenous administration to the caudal vein. The control group received the same volume of vehicle (intrathecal administration of saline or DMSO, intravenous administration of DMSO:PEG:PBS=1:6:3 v/v %) as the experimental groups. Evaluation of the mechanical withdrawal threshold was measured in responses to the application of calibrated von Frey filaments (Stoelting, Wood Dale, Ill., USA) to the hind paw of the rats through the holes on the mesh floor underneath the cage using the ‘up and down method’. A series of eight von Frey filaments (0.4, 0.7, 1.2, 2.0, 3.6, 5.5, 8.5, and 15 g) was applied perpendicular to the sole of the hind paw for 5 seconds while the head was bent. Active withdrawal or flinching of the paw was considered as a positive reaction. The absence of response in the rats, when a pressure was applied to 15 g von Frey filament, was used as a cut-off value. Only rats with definite allodynia (i.e., mechanical withdrawal threshold: less than 4 g after SNL or less than 5 g after CIPN) were tested. The rats after termination of the experiments were euthanized through an overdose of sevoflurane. The withdrawal threshold data for the von Frey filament test was calculated as % MPE (maximum possible effect) based on the following Calculation Equation: % MPE=[(Post-drug threshold−Post-injured baseline threshold)/(Cutoff threshold−post-injured baseline threshold)×100]. Dose-response data were analyzed using Scheffe's post hoc test and one-way analysis of variance (ANOVA).

[2] = system: CIPN rats (mechanical allodynia); test: Antiallodynic effect (von Frey) in chemotherapy-induced peripheral neuropathy (CIPN) rats; assay type: in vivo; conditions: Rattus norvegicus, intravenous administration
Description: as §1, §2

[3] = system: neuropathic pain (NeP) animal models; test: Efficacy in neuropathic pain (NeP) animal models, model not specified; assay type: in vivo, rat; conditions: Rattus norvegicus, read-out: ED50 of clinical drugs for NeP
Description: as §1, §2

Row | Structure (SMILES) | ED50 [1] [mg/kg] | ED50 [2] [mg/kg] | antiallodynic efficacy, MPE % ([1]; 1 μg, intrathecal administration) [%] | ED50 [3] [mg/kg]
1 | CCCc1nc(Cc2cccc(Oc3ccccc3)c2)c(C)c(C(=O)OCCCCN2C(=O)c3ccccc3C2=O)c1O [Compound 46d, 4-phthalimidobutyl 3-hydroxy-5-methyl-6-(3-phenoxybenzyl)-2-propylisonicotinate] | 3.12 | 3.94 |  | 
2 | CCCc1nc(Cc2cccc(Oc3ccccc3)c2)c(C)c(C(=O)OCCc2ccccc2)c1O [Compound 46a, Phenethyl 3-hydroxy-5-methyl-6-(3-phenoxybenzyl)-2-propylisonicotinate] | 2.31 | 3.02 |  | 
3 | CCCCCCCCOC(=O)c1c(C)c(Cc2cccc(Oc3ccccc3)c2)nc(CCC)c1O [Compound 46b, Octyl 3-hydroxy-5-methyl-6-(3-phenoxybenzyl)-2-propylisonicotinate] | 2.47 | 2.93 |  | 
4 | CCCc1nc(Cc2cccc(Oc3ccccc3)c2)c(C)c(C(=O)OC(CC)CC)c1O [Compound 46g, Pentan-3-yl 3-hydroxy-5-methyl-6-(3-phenoxybenzyl)-2-propylisonicotinate] | 3.42 | 3.66 |  | 
5 | CCCc1nc(Cc2cccc(Oc3ccccc3)c2)c(C)c(C(=O)OCC)c1O [Compound 48, Ethyl 3-hydroxy-5-methyl-6-(3-phenoxybenzyl)-2-propylisonicotinate] | 3.52 | 3.87 |  | 
6 | CCCc1nc(Cc2cccc(Oc3ccccc3)c2)c(C)c(C(=O)OCCN2C(=O)c3ccccc3C2=O)c1O [Compound 46c, 2-phthalimidoethyl 3-hydroxy-5-methyl-6-(3-phenoxybenzyl)-2-propylisonicotinate] | 2.97 | 3.28 |  | 
7 | CCCc1nc(Cc2cccc(Oc3ccccc3)c2)c(C)c(C(=O)OC(C)C)c1O [Compound 46f, Isopropyl 3-hydroxy-5-methyl-6-(3-phenoxybenzyl)-2-propylisonicotinate] | 2.78 | 3.08 |  | 
8 | CCCc1nc(Cc2cccc(Oc3ccccc3)c2)c(C)c(C(=O)OC2CCCC2)c1O [Compound 46h, Cyclopentyl 3-hydroxy-5-methyl-6-(3-phenoxybenzyl)-2-propylisonicotinate] | 3.64 | 3.91 |  | 
9 | CCCc1nc(Cc2cccc(Oc3ccccc3)c2)c(C)c(C(=O)OC2CCNCC2)c1O [Compound 47, Piperidin-4-yl 3-hydroxy-5-methyl-6-(3-phenoxybenzyl)-2-propylisonicotinate] | 3.35 | 3.77 |  | 
10 | CC(C)C[C@H](CN)CC(=O)O [pregabalin, reference compound] |  |  | 65±9 | 4.21
11 | CCCc1nc(Cc2cccc(Oc3ccccc3)c2)c(C)c(C(=O)OC2CCOC2)c1O (stereo not shown) [Compound 46i, Tetrahydrofuran-3-yl 3-hydroxy-5-methyl-6-(3-phenoxybenzyl)-2-propylisonicotinate] | 2.87 | 3.56 |  | 
12 | COc1cccc(C2(O)CCCCC2CN(C)C)c1 (stereo not shown) [tramadol, reference compound] |  |  |  | 4.67
13 | CCCc1nc(Cc2cccc(Oc3ccccc3)c2)c(C)c(C(=O)OCCN2CCCC2)c1O [Compound 46e, 2-(pyrrolidin-1-yl)ethyl 3-hydroxy-5-methyl-6-(3-phenoxybenzyl)-2-propylisonicotinate] | 3.02 | 3.55 |  | 
